{
  "source": "patent US11975013B2",
  "about": "“Stable formulations comprising thiotepa” (SHORLA PHARMA LTD., priority 2020, dated 2024)",
  "origin": "cited, not measured here",
  "details": "reconstituted in water, stored longer than five days; EP 0 419 890",
  "data": [
    {"smiles": "S=P(N1CC1)(N1CC1)N1CC1", "note": "[thiotepa, N,N′,N″-triethylenethiophosphoramide]", "values": [
      {"measurement": "potency on storage (in words)", "value": "substantial loss of potency"}
    ]}
  ]
}
